Test results taken from EPA's ToxRefDB 2.

Columns and labels:
rat [1] = details: Combined chronic toxicity/carcinogenicity, sprague dawley, Oral, Feed, dose end: 24 month
mouse [2] = details: Carcinogenicity, cd1, Oral, Feed, dose end: 18 month, group: systemic
rat [3] = details: Subchronic oral toxicity in rodents, other, Feed, dose end: 90 day
rat [4] = details: Prenatal developmental toxicity study, other, Oral, Gavage/Intubation, dose end: 16 GD, group: maternal
dog [5] = details: Subchronic oral toxicity in nonrodent, beagle, Feed, dose end: 103 day
mouse [6] = details: Subchronic oral toxicity in rodents, cd1, Feed, dose end: 7 week
rabbit = details: Prenatal developmental toxicity study, new zealand white, Oral, Gavage/Intubation, dose end: 19 GD, group: maternal
rat [7] = details: Subchronic oral toxicity in rodents, Charles River Crl:CD BR, Feed, dose end: 6 week
dog [8] = details: Subchronic oral toxicity in nonrodent, beagle, Feed, dose end: 26 week
dog [9] = details: Chronic toxicity, beagle, Oral, Feed, dose end: 52 week
rat [10] = details: Developmental neurotoxicity study; long evans; Injection; Intraperitoneal; dose end: 80 PND; group: cannot be grouped; systemic / in life observation / body weight / offspring (pup) weight + systemic / in life observation / clinical signs / abnormal movements…
rat [11] = details: Developmental neurotoxicity study; long evans; Inhalation; Whole-Body; dose end: 100 PND; group: cannot be grouped; developmental / developmental malformation / bone / incomplete ossification + developmental / developmental malformation / ovary / …
[12] = group: cholinesterase, cholinesterase / cholinesterase / cholinesterase / erythrocyte cholinesterase (che)
[13] = group: systemic, systemic / clinical chemistry / sodium / sodium
[14] = systemic / in life observation / body weight / body weight gain + systemic / in life observation / clinical signs / fur (altered appearance…
[15] = group: cholinesterase, cholinesterase / cholinesterase / cholinesterase / brain cholinesterase (che) + cholinesterase / cholinesterase / cholinesterase / …
[16] = group: systemic, systemic / in life observation / clinical signs / body surface staining + systemic / in life observation / clinical signs / hunched posture…
[17] = systemic / in life observation / body weight / body weight gain + systemic / in life observation / mortality / mortality + reproductive / …
[18] = systemic / in life observation / body weight / body weight gain + systemic / in life observation / mortality / mortality + systemic / in …
[19] = group: cholinesterase, cholinesterase / cholinesterase / cholinesterase / brain (regional) cholinesterase (che) + cholinesterase / cholinesterase / cholinesterase…
[20] = group: systemic, systemic / clinical chemistry / albumin / albumin + systemic / clinical chemistry / calcium / calcium + systemic / clinical chemistry / …
[21] = group: cholinesterase, cholinesterase / cholinesterase / cholinesterase / plasma cholinesterase (che)
[22] = group: systemic, systemic / in life observation / body weight / body weight gain
[23] = group: systemic, systemic / in life observation / body weight / body weight gain + systemic / in life observation / mortality / mortality + systemic / in …
[24] = reproductive / reproductive performance / resorptions / resorptions + systemic / in life observation / body weight / body weight gain + …
[25] = group: cholinesterase, cholinesterase / cholinesterase / cholinesterase / brain cholinesterase (che)
[26] = group: cholinesterase, cholinesterase / cholinesterase / cholinesterase / brain cholinesterase (che) + cholinesterase / cholinesterase / cholinesterase / plasma …
[27] = group: systemic, systemic / in life observation / body weight / body weight gain + systemic / in life observation / body weight / body weight
[28] = group: systemic, systemic / in life observation / clinical signs / defecation (diarrhea)
[29] = group: systemic, systemic / in life observation / clinical signs / defecation (diarrhea) + systemic / in life observation / clinical signs / distended …
[30] = group: cholinesterase, cholinesterase / cholinesterase / cholinesterase / erythrocyte cholinesterase (che) + cholinesterase / cholinesterase / cholinesterase / …
[31] = group: systemic, systemic / clinical chemistry / albumin / albumin + systemic / clinical chemistry / alkaline phosphatase (alp/alk) / alkaline phosphatase (…

With `CCOP(=S)(OCC)OC(Cl)C(Cl)(Cl)Cl` (stereo unspecified) [Chlorethoxyfos] the LEL (rat [1]; [12]) was 0.311 mg/kg/day, the LOAEL (rat [1]; [12]) was 0.311 mg/kg/day and the NEL (rat [1]; [12]) was 0.154 mg/kg/day. The NOAEL (rat [1]; [12]) was 0.154 mg/kg/day, the LEL (rat [1]; [13]) was 0.416 mg/kg/day and the LOAEL (rat [1]; [13]) was greater than 0.416 mg/kg/day. The NEL (rat [1]; [13]) was 0.208 mg/kg/day, the NOAEL (rat [1]; [13]) was no less than 0.416 mg/kg/day and the LOAEL (mouse [2]; [14]) was 14.9 mg/kg/day. The NEL (mouse [2]; [14]) was 0.337 mg/kg/day, the NOAEL (mouse [2]; [14]) was 3.25 mg/kg/day and the LEL (mouse [2]; systemic / pathology gross / skin / discolored) was 3.25 mg/kg/day. For the same compound, the LEL (rat [3]; [15]) was 0.635 mg/kg/day, the LOAEL (rat [3]; [15]) was greater than 1.64 mg/kg/day and the NEL (rat [3]; [15]) was 0.08 mg/kg/day. For the same compound, the NOAEL (rat [3]; [15]) was no less than 1.64 mg/kg/day, the LEL (rat [3]; [16]) was 1.23 mg/kg/day and the LOAEL (rat [3]; [16]) was 1.23 mg/kg/day. It also gave an NEL (rat [3]; [16]) of 0.635 mg/kg/day, an NOAEL (rat [3]; [16]) of 0.635 mg/kg/day and an LEL (rat [4]; [17]) of 0.5 mg/kg/day. It also gave an LOAEL (rat [4]; [17]) of 0.5 mg/kg/day, an NEL (rat [4]; [18]) of 0.25 mg/kg/day and an NOAEL (rat [4]; [18]) of 0.25 mg/kg/day. The LEL (dog [5]; [19]) was 0.125 mg/kg/day, the LOAEL (dog [5]; [19]) was 0.125 mg/kg/day and the NEL (dog [5]; [19]) was 0.0125 mg/kg/day. The NOAEL (dog [5]; [19]) was 0.0125 mg/kg/day, the LEL (dog [5]; [20]) was 1.25 mg/kg/day and the LOAEL (dog [5]; [20]) was greater than 1.25 mg/kg/day. The NEL (dog [5]; [20]) was 0.125 mg/kg/day, the NOAEL (dog [5]; [20]) was no less than 1.25 mg/kg/day and the LEL (mouse [6]; [21]) was 0.15 mg/kg/day. It also gave an LOAEL (mouse [6]; [21]) of 0.15 mg/kg/day, an NEL (mouse [6]; [21]) of 0.015 mg/kg/day and an NOAEL (mouse [6]; [21]) of 0.015 mg/kg/day. For the same compound, the LOAEL (mouse [6]; [22]) was 11.2 mg/kg/day, the LEL (mouse [6]; group: systemic, systemic / in life observation / body weight / body weight gain + systemic / in life observation / body weight / body weight + systemic / in…) was 11.2 mg/kg/day and the NEL (mouse [6]; [23]) was 0.15 mg/kg/day. It also gave an NOAEL (mouse [6]; [23]) of 0.15 mg/kg/day, an LOAEL (rabbit; reproductive / reproductive performance / resorptions / resorptions) of 3.1 mg/kg/day and an LEL (rabbit; [24]) of 3.1 mg/kg/day. For the same compound, the NEL (rabbit; [24]) was 1.38 mg/kg/day, the NOAEL (rabbit; [24]) was 1.38 mg/kg/day and the LEL (rat [7]; [25]) was 0.66 mg/kg/day. For the same compound, the LOAEL (rat [7]; [25]) was 0.66 mg/kg/day, the NEL (rat [7]; [26]) was 0.132 mg/kg/day and the NOAEL (rat [7]; [26]) was 0.132 mg/kg/day. The LOAEL (rat [7]; [22]) was 0.958 mg/kg/day, the LEL (rat [7]; [27]) was 0.958 mg/kg/day and the NEL (rat [7]; [27]) was 0.477 mg/kg/day. For the same compound, the NOAEL (rat [7]; [27]) was 0.477 mg/kg/day, the LEL (dog [8]; [21]) was 0.061 mg/kg/day and the LOAEL (dog [8]; [21]) was 0.578 mg/kg/day. For the same compound, the NEL (dog [8]; [21]) was less than 0.061 mg/kg/day, the NOAEL (dog [8]; group: cholinesterase, cholinesterase / cholinesterase / cholinesterase / plasma cholinesterase (che) + cholinesterase / cholinesterase / cholinesterase / brain (…) was 0.061 mg/kg/day and the LEL (dog [8]; [28]) was 0.578 mg/kg/day. It also gave an LOAEL (dog [8]; [28]) of 0.578 mg/kg/day, an NEL (dog [8]; [29]) of 0.061 mg/kg/day and an NOAEL (dog [8]; [29]) of 0.061 mg/kg/day. The LEL (dog [9]; [30]) was 0.591 mg/kg/day, the LOAEL (dog [9]; [30]) was 0.591 mg/kg/day and the NEL (dog [9]; [30]) was 0.065 mg/kg/day. It also gave an NOAEL (dog [9]; [30]) of 0.065 mg/kg/day, an LOAEL (dog [9]; group: systemic, systemic / clinical chemistry / albumin / albumin) of 1.86 mg/kg/day and an NEL (dog [9]; [31]) of 0.065 mg/kg/day. For the same compound, the NOAEL (dog [9]; [31]) was 0.591 mg/kg/day and the LEL (dog [9]; group: systemic, systemic / clinical chemistry / calcium / calcium) was 0.591 mg/kg/day.
`N#CCCNCCC#N` [3,3'-Iminobispropanenitrile] was tested, and the LEL (rat [10]) was 300 mg/kg/day, the LOAEL (rat [10]) was greater than 300 mg/kg/day and the NEL (rat [10]) was 150 mg/kg/day. It also gave an NOAEL (rat [10]) of no less than 300 mg/kg/day.
`ClC=C(Cl)Cl` [Trichloroethylene] showed an LEL (rat [11]) of 1800 ppm, an LOAEL (rat [11]) greater than 1800 ppm and an NEL (rat [11]) of less than 1800 ppm. It also gave an NOAEL (rat [11]) of no less than 1800 ppm.
